Reference: ChEMBL document CHEMBL1140262 (J Med Chem, 2005)

Legend:
[1] = target: Synaptic vesicular amine transporter (Rattus norvegicus, UniProt Q01827); format: cell membranes, Membrane
Description: Inhibition of 5 nM [3H]DTBZ binding to Vesicular Monoamine Transporter (VAMT2) of rat vesicle membranes

[2] = target: Neuronal acetylcholine receptor subunit alpha-7 (Rattus norvegicus, UniProt Q05941); format: cell membranes, Membrane
Description: Inhibition of 3 nM [3H]-MLA binding to Nicotinic acetylcholine receptor alpha7 of rat brain membranes

[3] = target: Neuronal acetylcholine receptor; alpha4/beta2 (Rattus norvegicus, UniProt P09483+P12390); experiment: Inhibition of 3 nM [3H]NIC binding to Nicotinic acetylcholine receptor alpha4-beta2 of rat striatal membranes; format: cell membranes, Membrane
Neuronal acetylcholine receptor; alpha4/beta2, sequence (P09483 whole entry): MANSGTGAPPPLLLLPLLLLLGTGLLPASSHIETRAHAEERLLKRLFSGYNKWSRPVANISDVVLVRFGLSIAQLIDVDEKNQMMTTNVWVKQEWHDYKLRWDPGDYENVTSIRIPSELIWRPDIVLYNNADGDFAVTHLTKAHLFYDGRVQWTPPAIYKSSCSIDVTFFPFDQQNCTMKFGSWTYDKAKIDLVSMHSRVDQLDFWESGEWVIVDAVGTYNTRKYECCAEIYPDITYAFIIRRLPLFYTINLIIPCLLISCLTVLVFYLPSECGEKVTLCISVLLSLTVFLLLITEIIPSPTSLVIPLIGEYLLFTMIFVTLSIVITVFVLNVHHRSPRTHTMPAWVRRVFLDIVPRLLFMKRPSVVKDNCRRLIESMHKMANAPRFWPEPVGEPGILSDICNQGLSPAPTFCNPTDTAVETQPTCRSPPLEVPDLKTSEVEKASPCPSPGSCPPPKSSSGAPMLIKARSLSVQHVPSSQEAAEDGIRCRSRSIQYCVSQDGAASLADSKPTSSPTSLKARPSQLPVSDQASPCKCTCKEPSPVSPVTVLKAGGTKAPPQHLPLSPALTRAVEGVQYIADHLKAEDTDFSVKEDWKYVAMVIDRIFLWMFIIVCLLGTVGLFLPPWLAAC
Neuronal acetylcholine receptor; alpha4/beta2, sequence (P12390 whole entry): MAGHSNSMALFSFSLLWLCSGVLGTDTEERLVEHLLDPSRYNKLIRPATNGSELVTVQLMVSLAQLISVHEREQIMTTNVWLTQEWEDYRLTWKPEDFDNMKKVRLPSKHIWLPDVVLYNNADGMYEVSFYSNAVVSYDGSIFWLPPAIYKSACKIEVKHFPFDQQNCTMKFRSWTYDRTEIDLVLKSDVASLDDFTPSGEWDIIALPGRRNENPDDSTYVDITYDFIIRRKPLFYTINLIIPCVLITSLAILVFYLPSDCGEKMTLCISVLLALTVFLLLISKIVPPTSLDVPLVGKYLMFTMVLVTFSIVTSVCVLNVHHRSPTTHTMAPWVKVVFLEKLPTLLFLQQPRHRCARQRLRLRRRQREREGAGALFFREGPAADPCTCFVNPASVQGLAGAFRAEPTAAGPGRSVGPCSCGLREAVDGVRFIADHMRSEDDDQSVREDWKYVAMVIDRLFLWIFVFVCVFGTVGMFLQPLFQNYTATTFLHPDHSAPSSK

Rattus norvegicus [4] = organism: Rattus norvegicus; experiment: Ratio of Ki for Nicotinic acetylcholine receptor alpha-7 and Vesicular monoamine transporter ([…])
Rattus norvegicus [5] = organism: Rattus norvegicus; experiment: Ratio of Ki for Nicotinic acetylcholine receptor alpha4-beta2 and Vesicular Monoamine Transporter ([…])

Synaptic vesicular amine transporter, sequence (Q01827 whole entry): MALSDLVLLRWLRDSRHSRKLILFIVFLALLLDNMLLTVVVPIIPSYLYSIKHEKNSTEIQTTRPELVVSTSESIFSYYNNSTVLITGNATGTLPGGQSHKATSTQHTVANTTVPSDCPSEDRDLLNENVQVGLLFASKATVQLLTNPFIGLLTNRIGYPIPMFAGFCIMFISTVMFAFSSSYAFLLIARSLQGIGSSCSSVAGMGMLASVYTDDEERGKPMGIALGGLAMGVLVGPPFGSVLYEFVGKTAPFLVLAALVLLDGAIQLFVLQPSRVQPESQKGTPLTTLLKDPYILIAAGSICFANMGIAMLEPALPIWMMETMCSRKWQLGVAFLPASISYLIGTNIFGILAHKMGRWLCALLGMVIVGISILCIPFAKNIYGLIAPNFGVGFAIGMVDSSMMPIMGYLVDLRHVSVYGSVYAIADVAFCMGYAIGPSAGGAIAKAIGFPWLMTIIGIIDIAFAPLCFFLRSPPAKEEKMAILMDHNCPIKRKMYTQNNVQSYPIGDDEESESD
Neuronal acetylcholine receptor subunit alpha-7, sequence (Q05941 whole entry): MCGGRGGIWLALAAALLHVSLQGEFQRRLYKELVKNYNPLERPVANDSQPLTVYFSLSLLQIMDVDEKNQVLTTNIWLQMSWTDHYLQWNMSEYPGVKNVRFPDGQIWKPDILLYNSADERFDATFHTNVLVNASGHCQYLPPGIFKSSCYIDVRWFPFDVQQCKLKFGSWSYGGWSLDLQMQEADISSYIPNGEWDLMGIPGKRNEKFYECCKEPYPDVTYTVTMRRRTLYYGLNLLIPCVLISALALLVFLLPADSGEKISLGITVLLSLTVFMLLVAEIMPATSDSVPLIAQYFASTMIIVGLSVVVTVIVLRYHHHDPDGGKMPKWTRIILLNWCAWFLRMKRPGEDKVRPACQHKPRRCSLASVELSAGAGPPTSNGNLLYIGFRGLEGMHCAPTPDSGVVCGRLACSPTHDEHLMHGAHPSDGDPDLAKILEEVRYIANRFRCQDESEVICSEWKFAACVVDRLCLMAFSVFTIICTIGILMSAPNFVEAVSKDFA

| SMILES | Ki [1] | Ki [2] | Ki [3] | Ki ratio (Rattus norvegicus [4]) | Ki ratio (Rattus norvegicus [5]) |
| --- | --- | --- | --- | --- | --- |
| CN1[C@@H](CCc2ccc3ccccc3c2)CCC[C@H]1CCc1ccc2ccccc2c1 | 2.03 µM | > 100 µM | > 100 µM | > 49.3 | > 49.3 |
| C[N+]1(C)[C@H](/C=C/c2ccccc2)CCC[C@H]1/C=C/c1ccccc1 | 9.24 µM | 15.1 µM | > 100 µM | 1.6 | > 10.8 |
| CN1[C@H](CCc2ccccc2)CCC[C@H]1CCc1ccccc1 | – | 25.3 µM | – | – | – |
| C[N+]1(C)[C@H](CCc2ccccc2)CCC[C@H]1CCc1ccccc1 | 24.6 µM | 2.39 µM | 16.2 µM | 0.1 | 0.7 |
| CN1[C@H](/C=C/c2ccccc2)CCC[C@@H]1/C=C/c1ccccc1 | 9.88 µM | > 100 µM | 11.6 µM | > 10.1 | 1.2 |
| C(=C\[C@@H]1CCC[C@H](/C=C/c2ccccc2)N1)/c1ccccc1 | – | > 100 µM | > 100 µM | > 48.1 | > 48.1 |
| CN1[C@H](CCc2ccccc2)CCC[C@H]1/C=C/c1ccccc1 | – | – | > 100 µM | – | – |
| CN(CCCc1ccccc1)CCCc1ccccc1 | 3.07 µM | > 100 µM | > 100 µM | > 32.3 | > 32.3 |
| CN[C@@H](CCCCCCc1ccccc1)CCc1ccccc1 | 5.21 µM | > 100 µM | > 100 µM | > 19.2 | > 19.2 |
| c1ccc2cc(CC[C@H]3CCC[C@@H](CCc4ccc5ccccc5c4)N3)ccc2c1 | > 100 µM | > 100 µM | > 100 µM | – | – |
| CN1[C@@H](CCc2ccccc2)CCC[C@@H]1/C=C/c1ccccc1 | – | – | > 100 µM | – | – |
| CN1[C@@H](CCc2ccccc2)C=CC[C@H]1/C=C/c1ccccc1 | 3.84 µM | > 100 µM | > 100 µM | > 26 | > 26 |
| C[N+]1(C)[C@@H](CCc2ccccc2)CCC[C@H]1CCc1ccccc1 | 16.5 µM | 9.63 µM | 24.3 µM | 0.6 | 1.5 |
| CN1[C@H](CCc2ccccc2)CCC[C@@H]1/C=C/c1ccccc1 | – | – | > 100 µM | – | – |
| CN1[C@@H](CCc2cccc3ccccc23)CCC[C@H]1CCc1cccc2ccccc12 | 0.63 µM | > 100 µM | > 100 µM | > 159 | > 159 |
| CN1[C@@H](CCc2ccccc2)CCC[C@@H]1CCc1ccccc1 | – | 40 µM | – | – | – |
| CN[C@H](CCCCCCc1ccccc1)CCc1ccccc1 | 3.96 µM | > 100 µM | > 100 µM | > 25.2 | > 25.2 |
| CN1[C@@H](CCc2ccccc2)CCC[C@H]1CCc1ccccc1 [LOBELANE] | – | 26 µM | – | – | – |
| c1ccc2c(CC[C@H]3CCC[C@@H](CCc4cccc5ccccc45)N3)cccc2c1 | 4.68 µM | > 100 µM | > 100 µM | > 21.4 | > 21.4 |
| C[N+]1(C)[C@H](/C=C/c2ccccc2)CCC[C@@H]1/C=C/c1ccccc1 | > 100 µM | 33.8 µM | > 100 µM | < 0.3 | – |
| c1ccc(CC[C@H]2CCC[C@@H](CCc3ccccc3)N2)cc1 | 2.31 µM | > 100 µM | > 100 µM | > 43.3 | > 43.3 |
| CN1[C@H](CCc2ccccc2)CC=C[C@@H]1CCc1ccccc1 | – | – | > 100 µM | – | – |
| CN1[C@H](/C=C/c2ccccc2)CCC[C@H]1/C=C/c1ccccc1 | 19.4 µM | > 100 µM | > 100 µM | > 5.2 | > 5.2 |
| CN1[C@@H](/C=C/c2ccccc2)CCC[C@@H]1/C=C/c1ccccc1 | 7.09 µM | > 100 µM | > 100 µM | > 14.1 | > 14.1 |
| CN1[C@@H](CCc2ccccc2)CCC[C@H]1/C=C/c1ccccc1 | – | – | > 100 µM | – | – |
| C(=C\[C@@H]1CCC[C@@H](/C=C/c2ccccc2)N1)/c1ccccc1.C(=C\[C@H]1CCC[C@H](/C=C/c2ccccc2)N1)/c1ccccc1 | 5.19 µM | > 100 µM | > 100 µM | > 19.3 | > 19.3 |
| CN(C/C=C/c1ccccc1)C/C=C/c1ccccc1 | 2.37 µM | > 100 µM | > 100 µM | > 42.2 | > 42.2 |
